target: T1, human ALK5 (Homo sapiens, UniProt P36897); assay: ADP-GLO Kinases assay of ALK5 enzymatic activity; type: biochemical; settings: purified recombinant human ALK5, TGFβ1 peptide substrate, pIC50 converted to pKi by Cheng-Prusoff, high ATP protocol (15 μM) for very potent compounds, 25° C.
T1 construct: human ALK5 (recombinant TGF β1 N-term GST-tagged, 80-end); GST (N); purchased
T1 sequence (P36897 80-503 limits assumed): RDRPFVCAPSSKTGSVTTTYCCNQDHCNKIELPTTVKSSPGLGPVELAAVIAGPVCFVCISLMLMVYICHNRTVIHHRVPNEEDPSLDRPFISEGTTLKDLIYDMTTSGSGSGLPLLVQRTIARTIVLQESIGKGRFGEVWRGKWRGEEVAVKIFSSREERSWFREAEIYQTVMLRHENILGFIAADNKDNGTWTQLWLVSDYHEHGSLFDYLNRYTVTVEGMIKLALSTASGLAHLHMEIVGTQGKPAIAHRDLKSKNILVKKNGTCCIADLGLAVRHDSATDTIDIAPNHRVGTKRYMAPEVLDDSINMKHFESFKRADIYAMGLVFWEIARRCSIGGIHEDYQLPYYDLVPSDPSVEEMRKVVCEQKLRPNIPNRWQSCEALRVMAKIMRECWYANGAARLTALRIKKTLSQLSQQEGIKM
Method in brief: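 Purified ALK5 preincubated 15 min with compound, then reacted with substrate and ATP; ADP formed read by ADP-Glo luminescence after 120 min or 60 min reaction, all steps at 25° C. 11-point concentration-response; pIC50 converted to pKi via Cheng-Prusoff.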

Row | Compound | Ki [nM]
1 | CSc1nnc(-c2cc(Cl)ccc2F)cc1Nc1ccnc(NC(=O)CCN2CCNCC2)c1 [Example 62, N-(4-{[6-(5-chloro-2-fluorophenyl)-3-(methylsulfanyl)pyridazin-4-yl]amino}pyridin-2-yl)-3-(piperazin-1-yl)propanamide] | ≤ 0.1
2 | Cc1ccc(F)c(-c2cc(Nc3ccnc(NC(=O)CCN4CCN(C)CC4)c3)c(OCC(F)(F)F)nn2)n1 [Example 68, N-(4-{[6-(3-fluoro-6-methylpyridin-2-yl)-3-(2,2,2-trifluoroethoxy)pyridazin-4-yl]amino}pyridin-2-yl)-3-(4-methylpiperazin-1-yl)propanamide] | 0.126 to 0.316
3 | CN1CCN(CCOc2nnc(-c3cc(Cl)ccc3F)cc2Nc2ccnc(N)c2)CC1 [Example 70, N4-[6-(5-chloro-2-fluorophenyl)-3-[2-(4-methylpiperazin-1-yl)ethoxy]pyridazin-4-yl]pyridine-2,4-diamine] | 0.398 to 3.16
4 | CN1CCN(CCC(=O)Nc2cc(Nc3cc(-c4cc(Cl)ccc4F)nnc3OCC3COC(=O)O3)ccn2)CC1 (stereo not shown) [Example 79, N-(4-{[6-(5-chloro-2-fluorophenyl)-3-[(2-oxo-1,3-dioxolan-4-yl)methoxy]pyridazin-4-yl]amino}pyridin-2-yl)-3-(4-methylpiperazin-1-yl)propanamide] | ≤ 0.1
5 | CN1CCN(CCC(=O)Nc2cc(Nc3cc(-c4cc(Cl)ccc4F)nnc3O[C@H]3C[C@@H](CO)C3)ccn2)CC1 [Example 80, N-(4-{[6-(5-chloro-2-fluorophenyl)-3-[3-(hydroxymethyl)cyclobutoxy]pyridazin-4-yl]amino}pyridin-2-yl)-3-(4-methylpiperazin-1-yl)propanamide] | ≤ 0.1
6 | CN1CCN(CCC(=O)Nc2cc(Nc3cc(-c4cc(Cl)ccc4F)nnc3OCc3cccc(O)c3)ccn2)CC1 [Example 81, N-(4-{[6-(5-chloro-2-fluorophenyl)-3-[(3-hydroxyphenyl)methoxy]pyridazin-4-yl]amino}pyridin-2-yl)-3-(4-methylpiperazin-1-yl)propanamide] | ≤ 0.1
7 | CN1CC2CCC1CN(CC(=O)Nc1cc(Nc3cc(-c4cc(Cl)ccc4F)nnc3SCCO)ccn1)C2 (stereo not shown) [Example 82, N-(4-{[6-(5-chloro-2-fluorophenyl)-3-[(2-hydroxyethyl)sulfanyl]pyridazin-4-yl]amino}pyridin-2-yl)-2-{6-methyl-3,6-diazabicyclo[3.2.2]nonan-3-yl}acetamide] | ≤ 0.1
8 | CN1CCN([C@H]2C[C@@H](C(=O)Nc3cc(Nc4cc(-c5cc(Cl)ccc5F)nnc4SCCO)ccn3)C2)CC1 [Example 83, Cis N-(4-{[6-(5-chloro-2-fluorophenyl)-3-[(2-hydroxyethyl)sulfanyl]pyridazin-4-yl]amino}pyridin-2-yl)-3-(4-methylpiperazin-1-yl)cyclobutane-1-carboxamide] | ≤ 0.1
9 | CN1C[C@@H]2C[C@H]1CN2[C@H]1C[C@@H](C(=O)Nc2cc(Nc3cc(-c4cc(Cl)ccc4F)nnc3SCCO)ccn2)C1 [Example 87, Cis N-(4-{[6-(5-chloro-2-fluorophenyl)-3-[(2-hydroxyethyl)sulfanyl]pyridazin-4-yl]amino}pyridin-2-yl)-3-[(1S,4S)-5-methyl-2,5-diazabicyclo[2.2.1]heptan-2-yl]cyclobutane-1-carboxamide] | ≤ 0.1
10 | O=C(Nc1cc(Nc2cc(-c3cc(Cl)ccc3F)nnc2SCCO)ccn1)[C@H]1C[C@@H](N2CCSCC2)C1 [Example 89, Cis N-(4-{[6-(5-chloro-2-fluorophenyl)-3-[(2-hydroxyethyl)sulfanyl]pyridazin-4-yl]amino}pyridin-2-yl)-3-(thiomorpholin-4-yl)cyclobutane-1-carboxamide] | ≤ 0.1
11 | CN1CCN([C@H]2C[C@@H](C(=O)Nc3cc(Nc4cc(-c5cc(Cl)ccc5F)nnc4SCCO)ccn3)C2)CC12CC2 [Example 90, Cis N-(4-{[6-(5-chloro-2-fluorophenyl)-3-[(2-hydroxyethyl)sulfanyl]pyridazin-4-yl]amino}pyridin-2-yl)-3-{4-methyl-4,7-diazaspiro[2.5]octan-7-yl}cyclobutane-1-carboxamide] | ≤ 0.1
12 | CN1CCN([C@H]2C[C@@H](C(=O)Nc3cc(Nc4cc(-c5cc(Cl)ccc5F)nnc4SCCO)ncn3)C2)CC1 [Example 91, Cis N-(6-{[6-(5-chloro-2-fluorophenyl)-3-[(2-hydroxyethyl)sulfanyl]pyridazin-4-yl]amino}pyrimidin-4-yl)-3-(4-methylpiperazin-1-yl)cyclobutane-1-carboxamide] | 0.126 to 0.316
13 | CN1CCN([C@H]2C[C@@H](C(=O)Nc3cc(Nc4cc(-c5cc(Cl)ccc5F)nnc4SC(C)(C)CO)ccn3)C2)CC1 [Example 94, Cis N-(4-{[6-(5-chloro-2-fluorophenyl)-3-[(1-hydroxy-2-methylpropan-2-yl)sulfanyl]pyridazin-4-yl]amino}pyridin-2-yl)-3-(4-methylpiperazin-1-yl)cyclobutane-1-carboxamide] | ≤ 0.1

Second part, the compound after the results:

Row | Ki [nM] | Compound
14 | 0.398 to 3.16 | COCCOc1nnc(-c2cc(Cl)ccc2F)cc1Nc1ccnc(N)c1 [Example 69, N4-[6-(5-chloro-2-fluorophenyl)-3-(2-methoxyethoxy)pyridazin-4-yl]pyridine-2,4-diamine]
15 | ≤ 0.1 | CN1CCN(CCC(=O)Nc2cc(Nc3cc(-c4cc(Cl)ccc4F)nnc3OC[C@H]3C[C@@H](O)C3)ccn2)CC1 [Example 71, Cis N-(4-{[6-(5-chloro-2-fluorophenyl)-3-[(3-hydroxycyclobutyl)methoxy]pyridazin-4-yl]amino}pyridin-2-yl)-3-(4-methylpiperazin-1-yl)propanamide]
16 | ≤ 0.1 | CN1CCN(CCC(=O)Nc2cc(Nc3cc(-c4cc(Cl)ccc4F)nnc3OCC3COC(C)(C)O3)ccn2)CC1 (stereo not shown) [Example 77, N-(4-{[6-(5-chloro-2-fluorophenyl)-3-[(2,2-dimethyl-1,3-dioxolan-4-yl)methoxy]pyridazin-4-yl]amino}pyridin-2-yl)-3-(4-methylpiperazin-1-yl)propanamide]
17 | ≤ 0.1 | CN1CCN(CCC(=O)Nc2cc(Nc3cc(-c4cc(Cl)ccc4F)nnc3OCC(O)CO)ccn2)CC1 (stereo not shown) [Example 78, N-(4-{[6-(5-chloro-2-fluorophenyl)-3-(2,3-dihydroxypropoxy)pyridazin-4-yl]amino}pyridin-2-yl)-3-(4-methylpiperazin-1-yl)propanamide]
18 | ≤ 0.1 | CN1CCCN(CCC(=O)Nc2cc(Nc3cc(-c4cc(Cl)ccc4F)nnc3SCCO)ccn2)CC1 [Example 84, N-(4-{[6-(5-chloro-2-fluorophenyl)-3-[(2-hydroxyethyl)sulfanyl]pyridazin-4-yl]amino}pyridin-2-yl)-3-(4-methyl-1,4-diazepan-1-yl)propanamide]
19 | ≤ 0.1 | CN1CCN(CCC(=O)Nc2cc(Nc3cc(-c4cc(Cl)ccc4F)nnc3SCC3COC(C)(C)O3)ccn2)CC1 (stereo not shown) [Example 85, N-(4-{[6-(5-chloro-2-fluorophenyl)-3-{[(2,2-dimethyl-1,3-dioxolan-4-yl)methyl]sulfanyl}pyridazin-4-yl]amino}pyridin-2-yl)-3-(4-methylpiperazin-1-yl)propanamide]
20 | ≤ 0.1 | CN1CCN(CCC(=O)Nc2cc(Nc3cc(-c4cc(Cl)ccc4F)nnc3SCC(O)CO)ccn2)CC1 (stereo not shown) [Example 86, N-(4-{[6-(5-chloro-2-fluorophenyl)-3-[(2,3-dihydroxypropyl)sulfanyl]pyridazin-4-yl]amino}pyridin-2-yl)-3-(4-methylpiperazin-1-yl)propanamide]
21 | ≤ 0.1 | CN1C[C@@H]2C[C@H]1CN2[C@H]1C[C@H](C(=O)Nc2cc(Nc3cc(-c4cc(Cl)ccc4F)nnc3SCCO)ccn2)C1 [Example 88, Trans N-(4-{[6-(5-chloro-2-fluorophenyl)-3-[(2-hydroxyethyl)sulfanyl]pyridazin-4-yl]amino}pyridin-2-yl)-3-[(1S,4S)-5-methyl-2,5-diazabicyclo[2.2.1]heptan-2-yl]cyclobutane-1-carboxamide]
22 | ≤ 0.1 | COC(=O)c1sc(Nc2cc(Nc3cc(-c4cc(Cl)ccc4F)nnc3SCCO)ccn2)cc1C1CCN(C)CC1 [Example 92, methyl 5-[(4-{[6-(5-chloro-2-fluorophenyl)-3-[(2-hydroxyethyl)sulfanyl]pyridazin-4-yl]amino}pyridin-2-yl)amino]-3-(1-methylpiperidin-4-yl)thiophene-2-carboxylate]
23 | 0.126 to 0.316 | CN1CCN(CCC(=O)Nc2cc(Nc3cc(-c4cc(Cl)ccc4F)nnc3SC(C)(C)CO)ccn2)CC1 [Example 93, N-(4-{[6-(5-chloro-2-fluorophenyl)-3-[(1-hydroxy-2-methylpropan-2-yl)sulfanyl]pyridazin-4-yl]amino}pyridin-2-yl)-3-(4-methylpiperazin-1-yl)propanamide]
24 | ≤ 0.1 | CN1CCN(CCC(=O)Nc2cc(Nc3cc(-c4cc(Cl)ccc4F)nnc3N3CC(CO)C3)ccn2)CC1 [Example 95, N-(4-{[6-(5-chloro-2-fluorophenyl)-3-[3-(hydroxymethyl)azetidin-1-yl]pyridazin-4-yl]amino}pyridin-2-yl)-3-(4-methylpiperazin-1-yl)propanamide]
25 | ≤ 0.1 | CN1CCN([C@H]2C[C@@H](C(=O)Nc3cc(Nc4cc(-c5cc(Cl)ccc5F)nnc4N(C)C)ccn3)C2)CC1 [Example 97, cis N-(4-{[6-(5-chloro-2-fluorophenyl)-3-(dimethylamino)pyridazin-4-yl]amino}pyridin-2-yl)-3-(4-methylpiperazin-1-yl)cyclobutane-1-carboxamide]

From patent US20250011299A1, “PYRIDAZINYL AMINO DERIVATIVES AS ALK5 INHIBITORS” (CHIESI FARMACEUTICI S.P.A., priority 2021, published 2025)
